In paper PMC6901909, “Synergy Pattern of Short Cationic Antimicrobial Peptides Against Multidrug-Resistant Pseudomonas aeruginosa” (Frontiers in Microbiology, 2019):
Converted amounts (≈) assume the structure as drawn. Read-outs that look alike come from different tables or passages of the source.

Experiments:
Experiment in all cases: microbe, parasite or virus in culture
Assay type in all cases: cell-based, Pseudomonas aeruginosa
MDR P. aeruginosa PA 910 = conditions: Pseudomonas aeruginosa
Method in brief: (§1)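 Inoculum 2–5 10^5 CFU/ml in Mueller-Hinton broth, compounds twofold serially diluted, polypropylene microtiter plates. Strains are MDR isolates from clinical and municipal waste water.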

MDR P. aeruginosa PA 915 = conditions: Pseudomonas aeruginosa; conventional antibiotics; microdilution, Mueller-Hinton broth, 2–5 10^5 CFU/ml, 18 h at 37°C, read visually; at least three repeats (n = 3)
Method in brief: as §1

P. aeruginosa PA01-wt = conditions: Pseudomonas aeruginosa, PA01WT; conventional antibiotics; microdilution, Mueller-Hinton broth, 2–5 10^5 CFU/ml, 18 h at 37°C, read visually; at least three repeats (n = 3)
MDR P. aeruginosa PA253 = conditions: Pseudomonas aeruginosa; conventional antibiotics; microdilution, Mueller-Hinton broth, 2–5 10^5 CFU/ml, 18 h at 37°C, read visually; at least three repeats (n = 3)
Method in brief: as §1

MDR P. aeruginosa PA 923 = conditions: Pseudomonas aeruginosa; conventional antibiotics; microdilution, Mueller-Hinton broth, 2–5 10^5 CFU/ml, 18 h at 37°C, read visually; at least three repeats (n = 3)
Method in brief: as §1

MDR P. aeruginosa PA 919 = conditions: Pseudomonas aeruginosa; conventional antibiotics; microdilution, Mueller-Hinton broth, 2–5 10^5 CFU/ml, 18 h at 37°C, read visually; at least three repeats (n = 3)
Method in brief: as §1

MDR P. aeruginosa PA 927 = conditions: Pseudomonas aeruginosa; conventional antibiotics; microdilution, Mueller-Hinton broth, 2–5 10^5 CFU/ml, 18 h at 37°C, read visually; at least three repeats (n = 3)
Method in brief: as §1

[1] = 18 h, antibiotic alone, as listed in the FIC table, read-out: MIC against PA910 in μM (antibiotics, head of Table 4)
[2] = conventional antibiotics, microdilution, Mueller-Hinton broth, 2–5 10^5 CFU/ml, 18 h at 37°C, read visually, at least three repeats (n = 3), read-out: MIC PA 910

Row | SMILES | MIC (MDR P. aeruginosa PA 910; [1]) | MIC (MDR P. aeruginosa PA 910; [2]) | MIC (MDR P. aeruginosa PA 915) | MIC (P. aeruginosa PA01-wt) | MIC (MDR P. aeruginosa PA253) | MIC (MDR P. aeruginosa PA 923) | MIC (MDR P. aeruginosa PA 919) | MIC (MDR P. aeruginosa PA 927)
1 | NCC[C@H](O)C(=O)N[C@@H]1C[C@H](N)[C@@H](O[C@H]2O[C@H](CN)[C@@H](O)[C@H](O)[C@H]2O)[C@H](O)[C@H]1O[C@H]1O[C@H](CO)[C@@H](O)[C@H](N)[C@H]1O [Amikacin] | 2 to 4 µM | 2 to 4 µM (≈ 1.17 to 2.34 µg/mL) | 4 µM (≈ 2.34 µg/mL) | 1 µM (≈ 0.586 µg/mL) | 8 to 16 µM (≈ 4.68 to 9.37 µg/mL) | 4 µM (≈ 2.34 µg/mL) | 32 µM (≈ 18.7 µg/mL) | 4 µM (≈ 2.34 µg/mL)
2 | CO/N=C(\C(=O)N[C@@H]1C(=O)N2C(C(=O)[O-])=C(C[N+]3(C)CCCC3)CS[C@H]12)c1csc(N)n1 [Cefepime] | 128 µM | 64 µM (≈ 30.8 µg/mL) | 32 µM (≈ 15.4 µg/mL) | 8 µM (≈ 3.84 µg/mL) | > 128 µM | 64 µM (≈ 30.8 µg/mL) | 16 µM (≈ 7.69 µg/mL) | 128 µM (≈ 61.5 µg/mL)
3 | CC(C)(O/N=C(\C(=O)N[C@@H]1C(=O)N2C(C(=O)[O-])=C(C[n+]3ccccc3)CS[C@H]12)c1csc(N)n1)C(=O)O [Ceftazidime] | 64 µM | 128 µM (≈ 70 µg/mL) | 4 µM (≈ 2.19 µg/mL) | 4 µM (≈ 2.19 µg/mL) | > 128 µM | 128 µM (≈ 70 µg/mL) | 8 µM (≈ 4.37 µg/mL) | > 128 µM

Other lines, results leading:

Row | MIC (MDR P. aeruginosa PA 910; [1]) | MIC (MDR P. aeruginosa PA 910; [2]) | MIC (MDR P. aeruginosa PA 915) | MIC (P. aeruginosa PA01-wt) | MIC (MDR P. aeruginosa PA253) | MIC (MDR P. aeruginosa PA 923) | MIC (MDR P. aeruginosa PA 919) | MIC (MDR P. aeruginosa PA 927) | SMILES
4 | 128 µM | 128 µM (≈ 93.9 µg/mL) | 64 µM (≈ 47 µg/mL) | 128 µM (≈ 93.9 µg/mL) | 64 µM (≈ 47 µg/mL) | 256 µM (≈ 188 µg/mL) | 128 µM (≈ 93.9 µg/mL) | 16 µM (≈ 11.7 µg/mL) | CC[C@H]1OC(=O)[C@H](C)[C@@H](O[C@H]2C[C@@](C)(OC)[C@@H](O)[C@H](C)O2)[C@H](C)[C@@H](O[C@@H]2O[C@H](C)C[C@H](N(C)C)[C@H]2O)[C@](C)(O)C[C@@H](C)C(=O)[C@H](C)[C@@H](O)[C@]1(C)O [Erythromycin]
5 | 128 µM | 128 µM (≈ 61.1 µg/mL) | 128 to 256 µM (≈ 61.1 to 122 µg/mL) | 1 µM (≈ 0.478 µg/mL) | > 256 µM | 128 µM (≈ 61.1 µg/mL) | 128 µM (≈ 61.1 µg/mL) | 128 µM (≈ 61.1 µg/mL) | CNC(C)C1CCC(N)C(OC2C(N)CC(N)C(OC3OCC(C)(O)C(NC)C3O)C2O)O1 (stereo not shown) [Gentamycin]
